Data: paper PMC12136037, “Type II kinase inhibitors that target Parkinson’s disease–associated LRRK2” (Science Advances, 2025)

Experiments:
Test in all cases: DSF 100 kinase selectivity screen;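 further: compound tested at 20 µM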
Format in all cases: binding
[1] = biological target: T1, ~100 representative kinases (Homo sapiens, UniProt Q96SB4); details: Protein SRPK1; DSF; average of three replicates
T1 construct: Recombinant protein kinase domains with a concentration of 2 μM
Procedure, shortened: (§1)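 Each kinase domain, at 2 μM, is mixed with 20 μM test compound and SYPRO Orange in Hepes (20 mM, pH 7.5) with 500 mM NaCl. Temperature is then raised at 3°C/min and fluorescence-monitored unfolding yields the melting temperature change, ΔTm in degrees Celsius.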

[2] = biological target: T2, ~100 representative kinases (Homo sapiens, UniProt Q09013); details: Protein DMPK1; average of three replicates
T2 construct: Recombinant protein kinase domains with a concentration of 2 μM
T2 sequence (Q09013 1-629): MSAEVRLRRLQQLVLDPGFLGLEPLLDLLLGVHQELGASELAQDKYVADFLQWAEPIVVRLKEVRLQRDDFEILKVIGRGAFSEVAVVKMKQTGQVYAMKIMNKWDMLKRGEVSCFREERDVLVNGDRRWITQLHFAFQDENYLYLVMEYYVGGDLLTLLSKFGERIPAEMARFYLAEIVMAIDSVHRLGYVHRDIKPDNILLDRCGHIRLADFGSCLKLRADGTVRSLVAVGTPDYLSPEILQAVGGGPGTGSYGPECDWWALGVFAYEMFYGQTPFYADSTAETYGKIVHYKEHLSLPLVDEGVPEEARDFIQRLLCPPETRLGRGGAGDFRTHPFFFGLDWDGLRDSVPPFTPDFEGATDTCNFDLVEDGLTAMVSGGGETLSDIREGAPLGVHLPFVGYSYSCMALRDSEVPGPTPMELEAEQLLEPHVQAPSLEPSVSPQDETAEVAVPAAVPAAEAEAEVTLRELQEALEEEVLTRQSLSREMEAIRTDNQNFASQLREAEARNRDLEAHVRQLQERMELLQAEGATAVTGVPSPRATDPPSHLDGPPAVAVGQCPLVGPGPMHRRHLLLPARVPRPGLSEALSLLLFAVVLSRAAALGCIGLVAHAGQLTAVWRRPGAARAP
Procedure, shortened: as §1

[3] = biological target: T3, ~100 representative kinases (Homo sapiens, UniProt P24941); details: Protein CDK2; average of three replicates
T3 construct: Recombinant protein kinase domains with a concentration of 2 μM
Procedure, shortened: as §1

[4] = biological target: T4, ~100 representative kinases (Homo sapiens, UniProt Q99683); details: protein MAP3K5; average of three replicates
T4 construct: Recombinant protein kinase domains with a concentration of 2 μM
T4 sequence (Q99683 1-1374): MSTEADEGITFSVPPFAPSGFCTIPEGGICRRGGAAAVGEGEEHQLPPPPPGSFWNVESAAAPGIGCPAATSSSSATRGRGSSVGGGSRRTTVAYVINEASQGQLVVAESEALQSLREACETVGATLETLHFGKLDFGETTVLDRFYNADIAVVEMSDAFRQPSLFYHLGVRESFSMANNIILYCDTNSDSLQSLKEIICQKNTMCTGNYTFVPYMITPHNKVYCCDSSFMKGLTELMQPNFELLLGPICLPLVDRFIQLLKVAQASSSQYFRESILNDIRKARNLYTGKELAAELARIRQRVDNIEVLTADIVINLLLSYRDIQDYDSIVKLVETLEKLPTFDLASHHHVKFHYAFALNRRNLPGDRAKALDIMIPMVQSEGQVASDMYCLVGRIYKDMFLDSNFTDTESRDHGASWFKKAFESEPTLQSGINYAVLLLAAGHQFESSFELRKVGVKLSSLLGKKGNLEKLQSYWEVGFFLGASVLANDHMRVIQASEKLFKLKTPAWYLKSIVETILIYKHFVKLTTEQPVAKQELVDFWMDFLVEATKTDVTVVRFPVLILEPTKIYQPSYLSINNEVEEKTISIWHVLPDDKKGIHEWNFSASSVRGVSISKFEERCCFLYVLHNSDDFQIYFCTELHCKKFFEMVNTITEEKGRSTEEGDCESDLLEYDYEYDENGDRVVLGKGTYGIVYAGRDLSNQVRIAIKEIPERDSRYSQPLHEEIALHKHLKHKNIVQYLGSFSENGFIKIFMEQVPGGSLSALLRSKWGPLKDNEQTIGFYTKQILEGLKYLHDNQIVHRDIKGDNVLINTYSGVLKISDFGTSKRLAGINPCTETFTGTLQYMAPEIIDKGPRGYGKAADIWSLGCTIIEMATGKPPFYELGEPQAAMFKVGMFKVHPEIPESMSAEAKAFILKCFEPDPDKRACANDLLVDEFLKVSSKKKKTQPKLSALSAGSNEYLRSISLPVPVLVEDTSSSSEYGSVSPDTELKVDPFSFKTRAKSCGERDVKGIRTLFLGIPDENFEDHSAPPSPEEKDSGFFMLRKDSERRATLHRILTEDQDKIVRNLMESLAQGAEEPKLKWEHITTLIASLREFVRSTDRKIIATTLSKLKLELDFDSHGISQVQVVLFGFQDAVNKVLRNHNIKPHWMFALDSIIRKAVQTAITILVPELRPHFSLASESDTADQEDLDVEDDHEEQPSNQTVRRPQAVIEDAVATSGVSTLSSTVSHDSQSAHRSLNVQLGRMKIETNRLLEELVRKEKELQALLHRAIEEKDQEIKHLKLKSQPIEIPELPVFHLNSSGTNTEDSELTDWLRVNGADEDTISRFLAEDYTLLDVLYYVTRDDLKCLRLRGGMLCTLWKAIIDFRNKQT
Procedure, shortened: as §1

[5] = biological target: T5, ~100 representative kinases (Homo sapiens, UniProt P49674); details: Protein CSNK1E; average of three replicates
T5 construct: Recombinant protein kinase domains with a concentration of 2 μM
T5 sequence (P49674 whole entry, the tested form may be a part): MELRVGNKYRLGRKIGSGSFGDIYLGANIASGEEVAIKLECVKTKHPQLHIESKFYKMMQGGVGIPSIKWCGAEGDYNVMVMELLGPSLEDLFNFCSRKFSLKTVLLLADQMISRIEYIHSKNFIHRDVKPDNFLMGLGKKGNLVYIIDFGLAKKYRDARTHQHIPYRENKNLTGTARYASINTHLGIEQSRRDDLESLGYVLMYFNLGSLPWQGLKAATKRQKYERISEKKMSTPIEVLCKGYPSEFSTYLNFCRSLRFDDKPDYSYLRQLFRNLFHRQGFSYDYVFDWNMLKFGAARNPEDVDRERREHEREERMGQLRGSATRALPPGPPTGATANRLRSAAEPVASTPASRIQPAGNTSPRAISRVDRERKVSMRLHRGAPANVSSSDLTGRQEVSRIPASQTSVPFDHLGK
Procedure, shortened: as §1

[6] = biological target: T6, ~100 representative kinases (Homo sapiens, UniProt P54764); details: Protein EPHA4; average of three replicates
T6 construct: Recombinant protein kinase domains with a concentration of 2 μM
T6 sequence (P54764 20-986): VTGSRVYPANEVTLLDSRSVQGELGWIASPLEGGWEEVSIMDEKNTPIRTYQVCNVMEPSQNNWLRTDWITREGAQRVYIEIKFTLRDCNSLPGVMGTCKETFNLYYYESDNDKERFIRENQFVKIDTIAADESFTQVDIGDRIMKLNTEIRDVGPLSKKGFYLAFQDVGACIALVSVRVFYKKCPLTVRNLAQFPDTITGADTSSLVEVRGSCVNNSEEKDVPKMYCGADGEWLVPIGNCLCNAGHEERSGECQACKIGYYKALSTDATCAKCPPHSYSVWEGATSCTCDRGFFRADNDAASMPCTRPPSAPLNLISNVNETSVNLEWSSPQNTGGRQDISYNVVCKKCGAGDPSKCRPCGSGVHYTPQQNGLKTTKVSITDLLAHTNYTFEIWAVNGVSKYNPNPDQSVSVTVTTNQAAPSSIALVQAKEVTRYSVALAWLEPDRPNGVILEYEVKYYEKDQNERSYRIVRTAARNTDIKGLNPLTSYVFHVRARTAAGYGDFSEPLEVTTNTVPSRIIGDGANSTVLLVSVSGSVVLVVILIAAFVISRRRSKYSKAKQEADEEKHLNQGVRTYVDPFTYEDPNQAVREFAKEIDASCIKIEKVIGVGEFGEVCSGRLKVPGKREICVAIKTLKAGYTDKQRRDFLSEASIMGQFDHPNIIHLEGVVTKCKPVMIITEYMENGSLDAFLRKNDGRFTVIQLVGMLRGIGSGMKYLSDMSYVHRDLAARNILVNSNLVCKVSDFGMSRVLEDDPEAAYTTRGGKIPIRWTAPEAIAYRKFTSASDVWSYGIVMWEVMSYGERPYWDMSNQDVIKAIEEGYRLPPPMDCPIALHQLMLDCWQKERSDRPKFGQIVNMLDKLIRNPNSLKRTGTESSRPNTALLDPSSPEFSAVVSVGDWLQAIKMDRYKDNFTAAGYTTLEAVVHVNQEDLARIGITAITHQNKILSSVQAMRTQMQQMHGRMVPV
Procedure, shortened: as §1

[7] = biological target: T7, ~100 representative kinases (Homo sapiens, UniProt Q8IU85); details: Protein CAMK1D; average of three replicates
T7 construct: Recombinant protein kinase domains with a concentration of 2 μM
T7 sequence (Q8IU85 whole entry, the tested form may be a part): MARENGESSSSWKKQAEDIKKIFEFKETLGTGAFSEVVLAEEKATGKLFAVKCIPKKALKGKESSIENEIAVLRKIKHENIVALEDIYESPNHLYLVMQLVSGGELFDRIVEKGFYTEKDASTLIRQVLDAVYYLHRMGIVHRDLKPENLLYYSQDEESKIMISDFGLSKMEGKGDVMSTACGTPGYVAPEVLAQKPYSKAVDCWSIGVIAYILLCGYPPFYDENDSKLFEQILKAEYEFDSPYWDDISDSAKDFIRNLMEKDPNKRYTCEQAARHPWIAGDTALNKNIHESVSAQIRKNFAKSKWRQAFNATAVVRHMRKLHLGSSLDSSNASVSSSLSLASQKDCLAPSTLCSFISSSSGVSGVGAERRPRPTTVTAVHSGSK
Procedure, shortened: as §1

[8] = biological target: T8, ~100 representative kinases (Homo sapiens, UniProt P54756); details: Protein EPHA5; average of three replicates
T8 construct: Recombinant protein kinase domains with a concentration of 2 μM
T8 sequence (P54756 25-1037): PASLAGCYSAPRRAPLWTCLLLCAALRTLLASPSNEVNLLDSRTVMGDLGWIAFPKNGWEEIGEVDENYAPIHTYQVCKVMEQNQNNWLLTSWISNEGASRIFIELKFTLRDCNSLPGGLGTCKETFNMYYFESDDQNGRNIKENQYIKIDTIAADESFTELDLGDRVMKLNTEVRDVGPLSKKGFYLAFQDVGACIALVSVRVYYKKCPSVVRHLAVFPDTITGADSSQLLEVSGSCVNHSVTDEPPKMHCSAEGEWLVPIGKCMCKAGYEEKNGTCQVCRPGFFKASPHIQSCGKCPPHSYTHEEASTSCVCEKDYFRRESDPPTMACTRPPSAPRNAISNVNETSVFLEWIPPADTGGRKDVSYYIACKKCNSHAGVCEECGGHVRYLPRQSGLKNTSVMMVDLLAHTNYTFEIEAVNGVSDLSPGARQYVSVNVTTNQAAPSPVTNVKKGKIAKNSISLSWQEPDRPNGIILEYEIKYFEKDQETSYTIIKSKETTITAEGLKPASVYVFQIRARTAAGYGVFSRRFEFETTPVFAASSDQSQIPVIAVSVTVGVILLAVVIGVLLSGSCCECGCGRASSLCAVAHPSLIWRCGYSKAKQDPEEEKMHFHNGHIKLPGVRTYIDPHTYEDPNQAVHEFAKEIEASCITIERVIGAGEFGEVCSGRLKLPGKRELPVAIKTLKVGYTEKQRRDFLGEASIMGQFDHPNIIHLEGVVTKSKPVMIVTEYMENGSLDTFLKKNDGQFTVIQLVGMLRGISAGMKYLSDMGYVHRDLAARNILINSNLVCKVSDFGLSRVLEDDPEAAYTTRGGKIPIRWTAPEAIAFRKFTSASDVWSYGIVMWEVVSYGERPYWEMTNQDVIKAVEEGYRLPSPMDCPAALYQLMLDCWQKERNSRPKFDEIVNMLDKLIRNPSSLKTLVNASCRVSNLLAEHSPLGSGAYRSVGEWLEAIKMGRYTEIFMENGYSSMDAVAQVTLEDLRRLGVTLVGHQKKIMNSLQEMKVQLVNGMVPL
Procedure, shortened: as §1

[9] = biological target: T9, ~100 representative kinases (Homo sapiens, UniProt P28482); details: protein MAPK1; average of three replicates
T9 construct: Recombinant protein kinase domains with a concentration of 2 μM
T9 sequence (P28482 whole entry, the tested form may be a part): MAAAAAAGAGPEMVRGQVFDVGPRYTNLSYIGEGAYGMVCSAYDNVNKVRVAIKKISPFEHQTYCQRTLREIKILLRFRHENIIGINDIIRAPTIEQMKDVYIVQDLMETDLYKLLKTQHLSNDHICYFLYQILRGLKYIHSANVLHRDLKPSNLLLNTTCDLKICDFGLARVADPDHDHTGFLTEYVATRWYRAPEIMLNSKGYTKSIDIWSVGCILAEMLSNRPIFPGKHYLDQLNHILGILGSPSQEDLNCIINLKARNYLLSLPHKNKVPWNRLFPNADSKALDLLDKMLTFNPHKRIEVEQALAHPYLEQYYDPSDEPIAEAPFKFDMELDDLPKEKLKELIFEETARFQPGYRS
Procedure, shortened: as §1

[10] = biological target: T10, ~100 representative kinases (Homo sapiens, UniProt O43293); details: Protein DAPK3; average of three replicates
T10 construct: Recombinant protein kinase domains with a concentration of 2 μM
T10 sequence (O43293 whole entry, the tested form may be a part): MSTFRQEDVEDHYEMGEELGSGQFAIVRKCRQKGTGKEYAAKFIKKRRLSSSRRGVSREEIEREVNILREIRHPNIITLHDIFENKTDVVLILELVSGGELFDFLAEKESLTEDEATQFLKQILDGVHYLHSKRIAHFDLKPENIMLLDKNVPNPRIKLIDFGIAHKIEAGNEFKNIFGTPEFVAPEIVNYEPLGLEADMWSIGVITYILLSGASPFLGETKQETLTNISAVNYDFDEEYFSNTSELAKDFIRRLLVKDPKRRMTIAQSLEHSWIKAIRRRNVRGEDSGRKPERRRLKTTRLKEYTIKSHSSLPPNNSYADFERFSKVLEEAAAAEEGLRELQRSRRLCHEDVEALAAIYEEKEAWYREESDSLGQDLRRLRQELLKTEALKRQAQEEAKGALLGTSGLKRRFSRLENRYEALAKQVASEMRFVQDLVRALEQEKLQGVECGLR
Procedure, shortened: as §1

[11] = biological target: T11, ~100 representative kinases (Homo sapiens, UniProt P49137); details: protein MAPKAPK2; average of three replicates
T11 construct: Recombinant protein kinase domains with a concentration of 2 μM
T11 sequence (P49137 whole entry, the tested form may be a part): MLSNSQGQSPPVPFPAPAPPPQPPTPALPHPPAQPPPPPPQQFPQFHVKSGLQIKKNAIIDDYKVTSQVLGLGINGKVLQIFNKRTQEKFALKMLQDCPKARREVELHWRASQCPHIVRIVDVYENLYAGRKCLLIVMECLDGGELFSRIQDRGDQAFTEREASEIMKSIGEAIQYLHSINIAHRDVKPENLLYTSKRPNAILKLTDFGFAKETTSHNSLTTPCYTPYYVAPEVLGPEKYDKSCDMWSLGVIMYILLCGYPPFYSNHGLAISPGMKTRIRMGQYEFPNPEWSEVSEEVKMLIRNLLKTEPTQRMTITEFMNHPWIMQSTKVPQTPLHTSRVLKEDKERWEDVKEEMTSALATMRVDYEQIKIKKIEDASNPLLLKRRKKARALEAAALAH
Procedure, shortened: as §1

T1 sequence (Q96SB4 whole entry, the tested form may be a part): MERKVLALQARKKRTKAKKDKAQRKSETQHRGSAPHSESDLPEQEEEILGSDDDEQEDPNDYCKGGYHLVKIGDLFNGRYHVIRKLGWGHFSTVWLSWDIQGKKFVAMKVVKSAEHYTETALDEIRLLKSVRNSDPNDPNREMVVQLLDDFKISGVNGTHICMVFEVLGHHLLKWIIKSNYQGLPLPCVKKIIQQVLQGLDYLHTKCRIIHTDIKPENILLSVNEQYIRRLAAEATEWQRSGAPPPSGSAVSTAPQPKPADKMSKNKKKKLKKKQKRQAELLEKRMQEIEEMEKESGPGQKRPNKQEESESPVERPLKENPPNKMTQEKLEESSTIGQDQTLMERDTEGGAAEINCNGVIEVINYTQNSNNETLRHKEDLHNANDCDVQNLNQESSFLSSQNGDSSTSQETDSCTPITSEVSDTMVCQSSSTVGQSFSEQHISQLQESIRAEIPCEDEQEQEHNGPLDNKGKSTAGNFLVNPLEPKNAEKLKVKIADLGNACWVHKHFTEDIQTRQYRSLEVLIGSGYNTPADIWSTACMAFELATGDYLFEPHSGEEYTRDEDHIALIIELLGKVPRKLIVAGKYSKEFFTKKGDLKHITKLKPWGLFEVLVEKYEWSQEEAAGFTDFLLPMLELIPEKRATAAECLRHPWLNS

Compound `CNC(=O)c1cc(Oc2ccc(NC(=O)Nc3cc(C(C)(C)C)nn3-c3ccc4ncccc4c3)c(F)c2)ccn1` [Rebastinib, reference compound] has a dTm [1] of 14.66 K, a dTm [2] of -0.79 K and a dTm [3] of 9.06 K. The dTm [4] was 1.38 K, the dTm [5] was 0.33 K and the dTm [6] was 15.87 K. The dTm [7] was 1.21 K, the dTm [8] was 10.65 K and the dTm [9] was 0.54 K. For the same compound, the dTm [10] was 5.73 K and the dTm [11] was 0.44 K.
